Converted amounts (≈) assume the structure as drawn. “And” between values parts separate entries of the source, which are not always exact repeats. Identical values can stand only once.
Tests used:
MRSA biofilms = assay: CLSM observation with biofilm cell and matrix staining; type: cell-based, Methicillin-resistant Staphylococcus aureus; conditions: elasnin 4 μg/mL
Description: Biofilms were grown on glass cover slides as described for the MBIC and MBEC assays. Treated biofilms were then rinsed twice with 1×PBS and stained with FilmTracer™ FM® 1-43 green biofilm cell stain and FilmTracer™ SYPRO® Ruby Biofilm Matrix Stain at room temperature for 30 min in the dark. Leica Sp8 Confocal Microscope was employed to observe cells and matrix in the biofilm at 488 nm.

trypsin = conditions: cited from earlier work
[1] = biological target: T1, human granulocyte elastase (Homo sapiens, UniProt P08246); conditions: cited from earlier work
T1 sequence (P08246 30-267): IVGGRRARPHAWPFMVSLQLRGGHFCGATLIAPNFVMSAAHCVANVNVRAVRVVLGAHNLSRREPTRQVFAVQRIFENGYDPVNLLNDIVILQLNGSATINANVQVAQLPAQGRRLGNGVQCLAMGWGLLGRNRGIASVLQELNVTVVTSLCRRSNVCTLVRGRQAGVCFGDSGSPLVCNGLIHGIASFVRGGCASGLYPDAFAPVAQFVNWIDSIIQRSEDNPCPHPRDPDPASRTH

pancreatic elastase = conditions: cited from earlier work
Bacillus subtilis 168 [2] = assay: MBEC assay; type: cell-based; conditions: 50% eradication of mature biofilm
Description: (§1) Minimum biofilm inhibitory concentrations (MBICs) and minimum biofilm eradication concentrations (MBECs) were determined as previously described (30, 31).
(§2) The ability of Elasnin to eradicate pre-formed mature biofilm was tested through a MBEC assay. Similar to MBIC assay, an overnight culture of testing strains was incubated for 24 hours in 96-well cell culture plates but without adding Elasnin to form biofilm. Formed biofilm was then rinsed twice by 1×PBS and challenged with a series concentration of Elasnin (diluted with LB and 0.5% glucose) and incubated for another 24 hours at 37° C. After incubation, each well was rinsed twice by 1×PBS and MTT assay was conducted to measure viable cells in remaining biofilm.

E. coli ATCC 25922 [3] = assay: MBEC assay; type: cell-based; conditions: viability of biofilm cells constant as concentration increased
Description: as §1, §2

P. aeruginosa PAO1 [4] = assay: MBEC assay; type: cell-based; conditions: viability of biofilm cells constant as concentration increased
Description: as §1, §2

S. aureus B04 [5] = assay: MBEC assay; type: cell-based; conditions: S. aureus B04, 50% eradication of mature biofilm
Description: as §1, §2

S. aureus ATCC 25923 [6] = assay: MBEC assay; type: cell-based; conditions: S. aureus ATCC 25923, 50% eradication of mature biofilm
Description: as §1, §2

MRSA ATCC 43300 [7] = assay: MBIC assay (biofilm inhibition, MTT); type: cell-based, Methicillin-resistant Staphylococcus aureus; conditions: minimum concentration inhibiting 90% biofilm formation
Description: as §1
(§3) An overnight culture of the testing strains was diluted into approximately 10^7 with LB and 0.5% glucose and treated with various concentrations of Elasnin in 96-well cell culture plates. Culture broth was then incubated at 37° C. for 24 hours and rinsed twice by 1×PBS to remove non-adhering and planktonic cells. After the wash, MTT staining assay was conducted to measure viable cells in the biofilm since the MTT can react with activated succinate dehydrogenase in viable cell mitochondria to form blue violet formazan, which can be read at 570 nm after being dissolved in DMSO.

MRSA ATCC 43300 [8] = assay: Minimum bactericidal concentration (MBC); type: cell-based, Methicillin-resistant Staphylococcus aureus
Description: (§4) Minimum inhibitory concentrations (MICs) and minimum bactericidal concentrations (MBCs) were determined with MRSA ATCC 43300 and E. coli ATCC 25922, according to the Clinical and Laboratory Standards Institute guideline CLSI M100 (2018). Approximately 10^5 CFU/ml overnight culture of the bacteria strains were inoculated into MHB and treated with series concentrations of Elasnin (or crude extracts and antibiotics). […] MBCs were measured following the MIC assay by plating 1 ml suitable diluted culture broth from each well on Mueller Hinton Agar (MHA) plate. The MBCs were defined as lowest concentration at which antimicrobial agent caused >99.9% reduction of cells. Each assay was done in duplicates and repeated 3 times.

MRSA ATCC 43300 [9] = assay: MBEC assay (eradication of pre-formed biofilm, MTT); type: cell-based, Methicillin-resistant Staphylococcus aureus; conditions: concentration eradicating 50% of mature biofilm within 24 hours
Description: as §1, §2

MRSA ATCC 43300 [10] = assay: Concentration response curve study (CFU counting of planktonic cells); type: cell-based, Methicillin-resistant Staphylococcus aureus; conditions: 24 hours; vancomycin 0 to 50 μg/ml, elasnin 0 to 100 μg/ml
Description: MRSA ATCC 43300 was used for concentration response curve study. 4×10^5 CFU/ml of exponentially growing MRSA was inoculated into MHB with various concentrations of elasnin and vancomycin in 15 ml falcon tubes. The tubes were incubated at 37° C. on a rotary shaker for 24 hours; 1 ml of culture broth in each tube was diluted with MHB and 1 ml diluted bacteria was plated on MHA plates for the CFU counting. Each concentration was plated on two plates and the experiments were repeated 3-times.

Bacillus subtilis 168 [11] = assay: MBIC assay; type: cell-based
Description: as §1, §3

E. coli ATCC 25922 [12] = assay: MBIC assay; type: cell-based; conditions: even at 100 μg/ml
Description: as §1, §3

P. aeruginosa PAO1 [13] = assay: MBIC assay; type: cell-based; conditions: even at 100 μg/ml
Description: as §1, §3

S. aureus B04 [14] = assay: MBIC assay; type: cell-based; conditions: S. aureus B04, 90% reduction of biofilm formation
Description: as §1, §3

S. aureus ATCC 25923 [15] = assay: MBIC assay; type: cell-based; conditions: S. aureus ATCC 25923, 90% reduction of biofilm formation
Description: as §1, §3

chymotrypsin = conditions: cited from earlier work
MRSA ATCC 43300 [16] = assay: Minimum inhibitory concentration (MIC), CLSI M100; type: cell-based, Methicillin-resistant Staphylococcus aureus; conditions: Staphylococcus aureus, 24 h
Description: as §4

[17] = biofilm eradication assay, pre-formed biofilm, 18 hr
[18] = biofilm inhibition assay, 24 hr, vs untreated

## CCCCCC(=O)C(CCCC)c1oc(=O)c(CCCC)c(O)c1CCCC (stereo not drawn) [elasnin]
MRSA biofilms; [17]
  reduction in cells: over 50%
  reduction in matrices: > 70%
MRSA biofilms; [18]
  decrease in density of cells: around 80%
  decrease in density of matrices: ~35%
trypsin
  activity against trypsin: almost no activities
[1]
  inhibition of human granulocyte elastase: inhibits
Pancreatic elastase
  activity against pancreatic elastase: almost no activities
Bacillus subtilis 168 [2]
  MBEC: 1.25 to 2.5 µg/mL
E. coli ATCC 25922 [3]
  activity in MBEC assay: No activity
P. aeruginosa PAO1 [4]
  activity in MBEC assay: No activity
S. aureus B04 [5]
  MBEC: 2.5 to 5 µg/mL
S. aureus ATCC 25923 [6]
  MBEC: 0.625 to 1.25 µg/mL
MRSA ATCC 43300 [7]
  MBIC: 1.25 to 2.5 µg/mL
MRSA ATCC 43300 [8]; >99.9% reduction of cells
  MBC: above 100 μg/ml
MRSA ATCC 43300 [9]
  MBEC: 1.25 µg/mL and 1.25 to 2.5 µg/mL
MRSA ATCC 43300 [10]
  cell density versus concentration (concentration-response curve): cell densities did not significantly differ
Bacillus subtilis 168 [11]; Bacillus subtilis 168, 90% reduction of biofilm formation
  MBIC: 2.5 to 5 µg/mL
Bacillus subtilis 168 [11]; Bacillus subtilis 168, elasnin 1.25 μg/ml
  biofilms inhibited: at least 80%
E. coli ATCC 25922 [12]
  development of biofilm formation: not influenced
P. aeruginosa PAO1 [13]
  development of biofilm formation: not influenced
S. aureus B04 [14]
  MBIC: 1.25 to 2.5 µg/mL
S. aureus ATCC 25923 [15]
  MBIC: 1.25 to 2.5 µg/mL
chymotrypsin
  activity against chymotrypsin: almost no activities

## CN[C@H](CC(C)C)C(=O)N[C@H]1C(=O)N[C@@H](CC(N)=O)C(=O)N[C@H]2C(=O)N[C@H]3C(=O)N[C@H](C(=O)N[C@H](C(=O)O)c4cc(O)cc(O)c4-c4cc3ccc4O)[C@H](O)c3ccc(c(Cl)c3)Oc3cc2cc(c3O[C@@H]2O[C@H](CO)[C@@H](O)[C@H](O)[C@H]2O[C@H]2C[C@](C)(N)[C@H](O)[C@H](C)O2)Oc2ccc(cc2Cl)[C@H]1O [vancomycin, reference compound]
MRSA ATCC 43300 [8]; Staphylococcus aureus
  MBC: 20 to 50 µg/mL (≈ 13.8 to 34.5 µM)
MRSA ATCC 43300 [9]
  MBEC: More than 10 μg/ml
MRSA ATCC 43300 [10]
  cell density versus concentration (concentration-response curve): sharp decrease in cell density as the concentration increased
MRSA ATCC 43300 [16]
  MIC: 0.5 to 2 µg/mL (≈ 0.345 to 1.38 µM)

From patent US12342819B2, “Elasnin, a bacteriostatic agent that has potent antibiofilm activities against both mono- and multi-species biofilm” (The Hong Kong University of Science and Technology, priority 2019, dated 2025)
